Active and inactive are the calls of the source. How the calls were made is not given here.
Tested on: CCRIS mutagenicity, Ames/micronucleus/aberration tests
Test: CCRIS mutagenicity studies

Q: With Nc1ccccc1 as the compound, how does the mutagenic call (End Point: IN VITRO CHROMOSOMAL ABERRATIONS, Test System: CHINESE HAMSTER OVARY CELLS, Metabolic Activation: NONE) read?
A: inactive; negative

Q: What about the mutagenic call (End Point: IN VITRO CHROMOSOMAL ABERRATIONS, Test System: CHINESE HAMSTER OVARY CELLS, Metabolic Activation: RAT, LIVER, S-9, AROCLOR 1254) of the same compound?
A: active; positive

Q: What about the mutagenic call (End Point: IN VITRO MICRONUCLEUS, Test System: CHL/IU CELLS, Metabolic Activation: RAT, LIVER, S-9, PHENOBARBITAL AND 5,6-BENZOFLAVONE) of the same compound?
A: active; positive

Q: And the mutagenic call (End Point: IN VIVO MICRONUCLEUS, Test System: BONE MARROW, Species: MOUSE, Strain/Sex: B6C3F1/MALE, Route: GAVAGE)?
A: active; positive

Q: What about the mutagenic call (End Point: In vivo chromosomal aberrations, Test System: Bone marrow erythrocytes, Species: Rat, Strain/Sex: PVG/Male, Route: Oral) of the same compound?
A: active; positive (structural changes) at 500 mg/kg (p<0.01)

Q: What about the mutagenic call (End Point: In vivo micronucleus, Test System: Bone marrow erythrocytes, Species: Mouse, Strain/Sex: CRH/Male, Route: Intraperitoneal) of the same compound?
A: active; positive (p<0.05)

Q: And the mutagenic call (Test System: AMES SALMONELLA TYPHIMURIUM, Strain/Indicator: TA97, Metabolic Activation: NONE, Method: STANDARD PLATE)?
A: inactive; negative

Q: And the mutagenic call (Test System: AMES SALMONELLA TYPHIMURIUM, Strain/Indicator: TA97, Metabolic Activation: RAT, LIVER, S-9, AROCLOR 1254, Method: STANDARD PLATE)?
A: inactive; negative

Q: What about the mutagenic call (Test System: AMES SALMONELLA TYPHIMURIUM, Strain/Indicator: TA98(NR), Metabolic Activation: NONE, Method: PREINCUBATION) of the same compound?
A: inactive; negative

Q: What about the mutagenic call (Test System: AMES SALMONELLA TYPHIMURIUM, Strain/Indicator: TA98(NR), Metabolic Activation: RAT, LIVER, S-9, AROCLOR 1254, Method: PREINCUBATION) of the same compound?
A: inactive; negative

Q: And the mutagenic call (Test System: AMES SALMONELLA TYPHIMURIUM, Strain/Indicator: TA98, Metabolic Activation: HAMSTER, LIVER, S-9, AROCLOR 1254, Method: STANDARD PLATE)?
A: inactive; negative

Q: What about the mutagenic call (Test System: AMES SALMONELLA TYPHIMURIUM, Strain/Indicator: TA98, Metabolic Activation: HAMSTER, LIVER, S-9, Method: STANDARD PLATE) of the same compound?
A: inactive; negative

Q: What about the mutagenic call (Test System: AMES SALMONELLA TYPHIMURIUM, Strain/Indicator: TA98, Metabolic Activation: MOUSE, LIVER, S-9, AROCLOR 1254, Method: STANDARD PLATE) of the same compound?
A: inactive; negative

Q: And the mutagenic call (Test System: AMES SALMONELLA TYPHIMURIUM, Strain/Indicator: TA98, Metabolic Activation: MOUSE, LIVER, S-9, Method: STANDARD PLATE)?
A: inactive; negative

Q: What about the mutagenic call (Test System: AMES SALMONELLA TYPHIMURIUM, Strain/Indicator: TA98, Metabolic Activation: NONE, Method: STANDARD PLATE) of the same compound?
A: inactive; negative

Q: And the mutagenic call (Test System: AMES SALMONELLA TYPHIMURIUM, Strain/Indicator: TA98, Metabolic Activation: PEA APICAL BUD S-9, Method: PREINCUBATION)?
A: inactive; negative

Q: And the mutagenic call (Test System: AMES SALMONELLA TYPHIMURIUM, Strain/Indicator: TA98, Metabolic Activation: PEA APICAL BUD S-9, Method: STANDARD PLATE)?
A: inactive; negative

Q: And the mutagenic call (Test System: AMES SALMONELLA TYPHIMURIUM, Strain/Indicator: TA98, Metabolic Activation: RAT, LIVER, S-9, AROCLOR 1254, Method: STANDARD PLATE)?
A: inactive; negative

Q: And the mutagenic call (Test System: AMES SALMONELLA TYPHIMURIUM, Strain/Indicator: TA98, Metabolic Activation: RAT, LIVER, S-9, ETHANOL, Method: PREINCUBATION)?
A: inactive; negative

Q: What about the mutagenic call (Test System: AMES SALMONELLA TYPHIMURIUM, Strain/Indicator: TA98, Metabolic Activation: RAT, LIVER, S-9, PHENOBARBITAL, Method: PREINCUBATION) of the same compound?
A: inactive; negative

Q: What about the mutagenic call (Test System: AMES SALMONELLA TYPHIMURIUM, Strain/Indicator: TA98, Metabolic Activation: RAT, LIVER, S-9, PYRAZOLE, Method: PREINCUBATION) of the same compound?
A: inactive; negative

Q: And the mutagenic call (Test System: AMES SALMONELLA TYPHIMURIUM, Strain/Indicator: TA98, Metabolic Activation: RAT, LIVER, S-9, Method: STANDARD PLATE)?
A: inactive; negative

Q: What about the mutagenic call (Test System: AMES SALMONELLA TYPHIMURIUM, Strain/Indicator: TA100(NR), Metabolic Activation: NONE, Method: PREINCUBATION) of the same compound?
A: inactive; negative

Q: And the mutagenic call (Test System: AMES SALMONELLA TYPHIMURIUM, Strain/Indicator: TA100(NR), Metabolic Activation: RAT, LIVER, S-9, AROCLOR 1254, Method: PREINCUBATION)?
A: inactive; negative

Q: And the mutagenic call (Test System: AMES SALMONELLA TYPHIMURIUM, Strain/Indicator: TA100, Metabolic Activation: HAMSTER, LIVER, S-9, AROCLOR 1254, Method: STANDARD PLATE)?
A: inactive; negative

Q: What about the mutagenic call (Test System: AMES SALMONELLA TYPHIMURIUM, Strain/Indicator: TA100, Metabolic Activation: HAMSTER, LIVER, S-9, Method: STANDARD PLATE) of the same compound?
A: inactive; negative

Q: What about the mutagenic call (Test System: AMES SALMONELLA TYPHIMURIUM, Strain/Indicator: TA100, Metabolic Activation: MOUSE, LIVER, S-9, AROCLOR 1254, Method: STANDARD PLATE) of the same compound?
A: inactive; negative

Q: What about the mutagenic call (Test System: AMES SALMONELLA TYPHIMURIUM, Strain/Indicator: TA100, Metabolic Activation: MOUSE, LIVER, S-9, Method: STANDARD PLATE) of the same compound?
A: inactive; negative

Q: And the mutagenic call (Test System: AMES SALMONELLA TYPHIMURIUM, Strain/Indicator: TA100, Metabolic Activation: NONE, Method: STANDARD PLATE)?
A: inactive; negative

Q: What about the mutagenic call (Test System: AMES SALMONELLA TYPHIMURIUM, Strain/Indicator: TA100, Metabolic Activation: PEA APICAL BUD S-9, Method: PREINCUBATION) of the same compound?
A: inactive; negative

Q: What about the mutagenic call (Test System: AMES SALMONELLA TYPHIMURIUM, Strain/Indicator: TA100, Metabolic Activation: PEA APICAL BUD S-9, Method: STANDARD PLATE) of the same compound?
A: inactive; negative

Q: What about the mutagenic call (Test System: AMES SALMONELLA TYPHIMURIUM, Strain/Indicator: TA100, Metabolic Activation: RAT, LIVER, S-9, AROCLOR 1254, Method: PREINCUBATION) of the same compound?
A: inactive; negative

Q: What about the mutagenic call (Test System: AMES SALMONELLA TYPHIMURIUM, Strain/Indicator: TA100, Metabolic Activation: RAT, LIVER, S-9, AROCLOR 1254, Method: STANDARD PLATE) of the same compound?
A: inactive; negative

Q: What about the mutagenic call (Test System: AMES SALMONELLA TYPHIMURIUM, Strain/Indicator: TA100, Metabolic Activation: RAT, LIVER, S-9, ETHANOL, Method: PREINCUBATION) of the same compound?
A: inactive; negative

Q: And the mutagenic call (Test System: AMES SALMONELLA TYPHIMURIUM, Strain/Indicator: TA100, Metabolic Activation: RAT, LIVER, S-9, PHENOBARBITAL, Method: PREINCUBATION)?
A: inactive; negative

Q: And the mutagenic call (Test System: AMES SALMONELLA TYPHIMURIUM, Strain/Indicator: TA100, Metabolic Activation: RAT, LIVER, S-9, PYRAZOLE, Method: PREINCUBATION)?
A: inactive; negative

Q: And the mutagenic call (Test System: AMES SALMONELLA TYPHIMURIUM, Strain/Indicator: TA100, Metabolic Activation: RAT, LIVER, S-9, Method: STANDARD PLATE)?
A: inactive; negative

Q: And the mutagenic call (Test System: AMES SALMONELLA TYPHIMURIUM, Strain/Indicator: TA102, Metabolic Activation: RAT, LIVER, S-9, AROCLOR 1254, Method: STANDARD PLATE)?
A: inactive; negative

Q: What about the mutagenic call (Test System: AMES SALMONELLA TYPHIMURIUM, Strain/Indicator: TA102, Metabolic Activation: RAT, LIVER, S-9, PYRAZOLE, Method: PREINCUBATION) of the same compound?
A: inactive; negative

Q: And the mutagenic call (Test System: AMES SALMONELLA TYPHIMURIUM, Strain/Indicator: TA1535, Metabolic Activation: HAMSTER, LIVER, S-9, AROCLOR 1254, Method: STANDARD PLATE)?
A: inactive; negative

Q: And the mutagenic call (Test System: AMES SALMONELLA TYPHIMURIUM, Strain/Indicator: TA1535, Metabolic Activation: HAMSTER, LIVER, S-9, Method: STANDARD PLATE)?
A: inactive; negative

Q: What about the mutagenic call (Test System: AMES SALMONELLA TYPHIMURIUM, Strain/Indicator: TA1535, Metabolic Activation: MOUSE, LIVER, S-9, AROCLOR 1254, Method: STANDARD PLATE) of the same compound?
A: inactive; negative

Q: And the mutagenic call (Test System: AMES SALMONELLA TYPHIMURIUM, Strain/Indicator: TA1535, Metabolic Activation: MOUSE, LIVER, S-9, Method: STANDARD PLATE)?
A: inactive; negative

Q: And the mutagenic call (Test System: AMES SALMONELLA TYPHIMURIUM, Strain/Indicator: TA1535, Metabolic Activation: NONE, Method: STANDARD PLATE)?
A: inactive; negative

Q: And the mutagenic call (Test System: AMES SALMONELLA TYPHIMURIUM, Strain/Indicator: TA1535, Metabolic Activation: RAT, LIVER, S-9, AROCLOR 1254, Method: STANDARD PLATE)?
A: inactive; negative

Q: And the mutagenic call (Test System: AMES SALMONELLA TYPHIMURIUM, Strain/Indicator: TA1535, Metabolic Activation: RAT, LIVER, S-9, PYRAZOLE, Method: PREINCUBATION)?
A: inactive; negative

From PubChem BioAssay AID1259407 (Chemical Carcinogenesis Research Information System (CCRIS), 2018)
